In patent US10768184B2, “Methods for increasing palatability of pet foodstuff” (MARS, INCORPORATED, priority 2013, dated 2020):

Assays:
cats = test: Cat gel panel feeding test, monadic exposure (palatability, gel intake); format: in vivo
Description: A cat gel panel was used to compare the palatability of a range of concentrations of oleic acid in a monadic exposure. The dose response tested 8 concentrations of oleic acid ranging from 0.001% oleic acid to 1% oleic acid. All products (including the blank, 0% oleic acid) contained 25 mM L-histidine as an ingestive/positive tastant to increase the baseline gel intake, enabling the identification of a potential negative impact of the oleic acid concentration. A cat gel panel was used to compare the palatability of a range of concentrations of linoleic acid in a monadic exposure. The dose response tested 8 concentrations of linoleic acid ranging from 0.001% linoleic acid to 1% linoleic acid. All products (including the blank, 0% linoleic acid) contained 25 mM L-histidine as an ingestive/positive tastant to increase the baseline gel intake, enabling the identification of a potential negative impact of the linoleic acid concentration. A cat gel panel was used to compare the palatability of a range of concentrations of lauric acid in a monadic exposure. The dose response tested 5 concentrations of lauric acid ranging from 0.05% lauric acid to 1% lauric acid. All products (including the blank, 0% lauric acid) contained 25 mM L-histidine as an ingestive/positive tastant to increase the baseline gel intake, enabling the identification of a potential negative impact of the lauric acid concentration. A cat gel panel was used to compare the palatability of a range of concentrations of palmitic acid in a monadic exposure. The dose response tested 5 concentrations of palmitic acid ranging from 0.05% palmitic acid to 1% palmitic acid. All products (including the blank, 0% palmitic acid) contained 25 mM L-histidine as an ingestive/positive tastant to increase the baseline gel intake, enabling the identification of a potential negative impact of the palmitic acid concentration.

dogs = test: Dog panel feeding test, monadic exposure (palatability, gel intake), two single-breed panels; format: in vivo; details: 100 mM L-histidine
Description: Two different dog panels were used to compare the palatability of concentrations of linoleic acid. Each panel was made up of a single breed of dog; each panel being a different breed. The canine panels were used to compare the palatability of a range of concentrations of linoleic acid in a monadic exposure. The dose response tested 3 concentrations of linoleic acid ranging from 0.01% linoleic acid to 1% linoleic acid. All products (including the blank, 0% linoleic acid) contained 100 mM L-histidine as an ingestive/positive tastant to increase the baseline gel intake, enabling the identification of a potential negative impact of the linoleic acid concentration. Two different dog panels were used to compare the palatability of concentrations of oleic acid. Each panel was made up of a single breed of dog; each panel being a different breed. The canine panels were used to compare the palatability of a range of concentrations of oleic acid in a monadic exposure. The dose response tested 3 concentrations of oleic acid ranging from 0.01% oleic acid to 1% oleic acid. All products (including the blank, 0% oleic acid) contained 100 mM L-histidine as an ingestive/positive tastant to increase the baseline gel intake, enabling the identification of a potential negative impact of the oleic acid concentration.

cat GPR120 = test: Calcium-sensitive fluorescent dye (Fluo8) FLIPR assay, transiently transfected cells; format: cell-based; details: in vitro assays with the feline receptors
Description: These constructs were then transiently transfected into the CHO K1 immortalised cell line, and other commonly used cell lines using Lipofectamine 2000 and testing was performed to establish the successful expression of the target protein. The testing was carried out using a calcium sensitive fluorescent dye (Fluo8). Transfected cells were seeded into 384 well assay plates. By loading the cells with the dye and then challenging the cells with an agonist for the receptor the response of the cells could be recorded on the FLIPR^TETRA instrument by measuring the increase in fluorescence associated with intra-cellular calcium release, thus confirming the functional expression of the receptor. Suitable experimental controls eliminate any possibility that the response of the cells is non-specific or that the fluorescence increase is due to factors other than the release of intracellular calcium by the cells.

[1] = 0.1% fatty acid in gel with 25 mM L-histidine
[2] = 0.6% fatty acid in gel with 25 mM L-histidine
[3] = dog panel Breed 1, 1% fatty acid (highest tested)

Compound	intake compared to the blank (cats; [1])	intake compared to the blank (cats; [2])	intake compared to the blank (cats; 1% fatty acid in gel with 25 mM L-histidine)	intake compared to the blank (cats; higher concentrations (above 0.1%, up to 1%), 25 mM L-histidine)	response compared to the blank (dogs; [3])	response compared to the blank (dogs; dog panel Breed 2, 3 concentrations tested, 0.01% to 1%)	activation of feline receptors in vitro (cat GPR120)	intake compared to the blank (cats; 0.2% (w/v) fatty acid in gel with 25 mM L-histidine)	intake compared to the blank (cats; 0.3% (w/v) fatty acid in gel with 25 mM L-histidine)	response compared to the blank (dogs; dog panel Breed 2, 0.1% fatty acid)	intake compared to the blank (cats; any of the 5 concentrations tested, 0.05% to 1%, 25 mM L-histidine)
CCCCCCCCCCCC(=O)O [lauric acid]	highest intake overall	significantly aversive/negative	significantly aversive/negative	–	–	–	–	–	–	–	–
CCCCC/C=C\C/C=C\CCCCCCCC(=O)O [linoleic acid]	significantly higher intake	–	–	trend for the higher concentrations to become aversive/negative	significant positive/ingestive response	smaller differences between the linoleic acid concentrations tested	positive activation	–	–	–	–
CCCCCCCC/C=C\CCCCCCCC(=O)O [oleic acid]	significantly higher intake	significantly higher intake	–	–	significant positive/ingestive response	–	positive activation	significantly higher intake	significantly higher intake	significant positive/ingestive response	–
CCCCCCCCCCCCCCCC(=O)O [palmitic acid]	–	–	–	–	–	–	–	–	–	–	no significant difference
